Test results from patent publication US11643438B2, “Antimicrobial peptides and methods of use” (priority 2018, dated 2023).
Converted amounts (≈) assume the structure as drawn. “Also recorded” adds a separate entry of the source. Like-named read-outs stand apart in the source and are kept apart here. *1 amine or outer side, *2 acyl side, *3 side chain or, on linkers, in order; H or OH if unused. Where a SMILES comes first, the peptide text is derived from it. [ ]: non-standard residue; d: D form. X2 = CC[C@H](C)C[C@H](C)C[C@H](C)C[C@H](N[*:1])C(=O)[*:2]; X1 = CC[C@@H](C)[C@@H](O[*:1])C(=O)[*:2]; NMeVal(β-OH) = CN[C@H](C(=O)O)C(C)(C)O; aIle = CC[C@@H](C)[C@H](N)C(=O)O; NMeV = CN[C@H](C(=O)O)C(C)C; Sar = CNCC(=O)O

How the values were obtained:
[1] = test system: Candida duobushaemulonii 391; experiment: Antifungal MIC80 assay, clinical yeast isolates
Candida tropicalis 13 = experiment: Antifungal MIC80 assay, clinical yeast isolates
[2] = test system: Aspergillus niger FGSC A732; experiment: Antifungal MIC80/MFC assay, fungal pathogen panel
[3] = test system: 44 clinical yeast isolates (Candida, Kodameae, Saccharomyces); experiment: Antifungal MIC80 assay, summary over 44 clinical yeast isolates
Candida parapsilosis 9 = experiment: Antifungal MIC80 assay, clinical yeast isolates
Candida albicans 21 = experiment: Antifungal MIC80 assay, clinical yeast isolates
Candida lusitaniae 398 = experiment: Antifungal MIC80 assay, clinical yeast isolates
Candida auris 388 = experiment: Antifungal MIC80 assay, clinical yeast isolates
Candida kefyr 12 = experiment: Antifungal MIC80 assay, clinical yeast isolates
[4] = test system: Aspergillus fumigatus ATCC MYA-3627; experiment: Effect of serum on antifungal activity (MIC80); format: cell-based
Experimental: (§1) Given that compound 1 contains a large number of hydrophobic amino acid residues that might promote non-specific protein binding resulting in a loss of in vivo activity, the efficacy of the compound was tested in the presence of blood serum against four fungal pathogens (C. albicans, C. auris, C. neoformans, and A. fumigatus) (Table 3).

[5] = test system: Cryptococcus neoformans H99; experiment: Effect of serum on antifungal activity (MIC80); format: cell-based
Experimental: as §1

Candida albicans SC5314 [6] = experiment: Effect of serum on antifungal activity (MIC80); format: cell-based
Experimental: as §1

Candida auris 381 = experiment: Effect of serum on antifungal activity (MIC80); format: cell-based
Experimental: as §1

Candida albicans 3 = experiment: Antifungal MIC80 assay, clinical yeast isolates
Candida glabrata 22 = experiment: Antifungal MIC80 assay, clinical yeast isolates
[7] = test system: Aspergillus fumigatus NRRL5109; experiment: Antifungal MIC80/MFC assay, fungal pathogen panel
Kodameae ohmeri 396 = experiment: Antifungal MIC80 assay, clinical yeast isolates
Candida albicans SC5314 [8] = experiment: Antifungal MIC80/MFC assay, fungal pathogen panel
[9] = test system: Rhizopus oryzae FGSC 9543; experiment: Antifungal MIC80/MFC assay, fungal pathogen panel
Candida albicans 1 = experiment: Antifungal MIC80 assay, clinical yeast isolates
[10] = test system: Paecilomyces lilacinus 165E10; experiment: Antifungal MIC80/MFC assay, fungal pathogen panel
Candida parapsilosis 7 = experiment: Antifungal MIC80 assay, clinical yeast isolates
Candida krusei 25 = experiment: Antifungal MIC80 assay, clinical yeast isolates
Candida parapsilosis 18 = experiment: Antifungal MIC80 assay, clinical yeast isolates
Candida auris 383 = experiment: Antifungal MIC80 assay, clinical yeast isolates
Candida auris 390 = experiment: Antifungal MIC80 assay, clinical yeast isolates
Candida krusei 397 = experiment: Antifungal MIC80 assay, clinical yeast isolates
Candida glabrata 11 = experiment: Antifungal MIC80 assay, clinical yeast isolates
Candida auris 385 = experiment: Antifungal MIC80 assay, clinical yeast isolates
Candida albicans 10 = experiment: Antifungal MIC80 assay, clinical yeast isolates
Candida glabrata 20 = experiment: Antifungal MIC80 assay, clinical yeast isolates
[11] = test system: Aspergillus fumigatus NRRL5109; experiment: Ex vivo model of fungal keratitis (porcine cornea); conditions: for effect of different doses on fungal growth: FIG. 10
Fusarium tricinctum = experiment: MIC/MFC against phytopathogenic (endophytic) fungi
[12] = 0% serum (v/v) in growth medium
[13] = 5% serum (v/v) in growth medium
[14] = 10% serum (v/v) in growth medium
[15] = Purpureocillium lilacinum, 165E10

## C[C@@H]1[C@H](O)[C@@H](C)/C=C/C=C/C=C/C=C/C=C/C=C/C=C/[C@H](O[C@@H]2O[C@H](C)[C@@H](O)[C@H](N)[C@@H]2O)C[C@@H]2O[C@](O)(C[C@@H](O)C[C@@H](O)[C@H](O)CC[C@@H](O)C[C@@H](O)CC(=O)O[C@H]1C)C[C@H](O)[C@H]2C(=O)O [AMB, amphotericin B]
[1]; Candida duobushaemulonii 391, multidrug-resistant
  MIC80: 5 µM (≈ 4.62 µg/mL)
Candida tropicalis 13
  MIC80: 0.15 µM (≈ 0.139 µg/mL)
[2]; Aspergillus niger FGSC A732
  MFC: 2.5 µM (≈ 2.31 µg/mL)
  MIC80: 0.6 µM (≈ 0.554 µg/mL)
[3]; 44 clinical yeast isolates
  maximum MIC80 value: 2.5 µM
  median MIC80: 1.25 µM
  minimum MIC80 value: 0.15 µM
Candida parapsilosis 9; Candida parapsilosis 9
  MIC80: 2.5 µM (≈ 2.31 µg/mL)
Candida albicans 21
  MIC80: 0.6 µM (≈ 0.554 µg/mL)
Candida lusitaniae 398; Candida lusitaniae 398, multidrug-resistant
  MIC80: 0.6 µM (≈ 0.554 µg/mL)
Candida auris 388; Candida auris 388, multidrug-resistant
  MIC80: 2.5 µM (≈ 2.31 µg/mL)
Candida kefyr 12; Candida kefyr 12
  MIC80: 0.3 µM (≈ 0.277 µg/mL)
[4]; [12]
  MIC80: 2.5 µM (≈ 2.31 µg/mL)
[4]; [13]
  MIC80: <0.07 µM
[4]; [14]
  MIC80: 0.15 µM (≈ 0.139 µg/mL)
[5]; Cryptococcus neoformans H99, 0% serum (v/v) in growth medium
  MIC80: 1.25 µM (≈ 1.16 µg/mL)
[5]; Cryptococcus neoformans H99, 5% serum (v/v) in growth medium
  MIC80: <0.15 µM
[5]; Cryptococcus neoformans H99, 10% serum (v/v) in growth medium
  MIC80: <0.15 µM
Candida albicans SC5314 [6]; Candida albicans SC5314, 0% serum (v/v) in growth medium
  MIC80: 0.6 µM (≈ 0.554 µg/mL)
Candida albicans SC5314 [6]; Candida albicans SC5314, 5% serum (v/v) in growth medium
  MIC80: <0.15 µM
Candida albicans SC5314 [6]; Candida albicans SC5314, 10% serum (v/v) in growth medium
  MIC80: <0.15 µM
Candida auris 381; [12]
  MIC80: 2.5 µM (≈ 2.31 µg/mL)
Candida auris 381; [13]
  MIC80: <0.15 µM
Candida auris 381; [14]
  MIC80: 0.3 µM (≈ 0.277 µg/mL)
Candida albicans 3
  MIC80: 0.6 µM (≈ 0.554 µg/mL)
Candida glabrata 22; Candida glabrata 22
  MIC80: 0.3 µM (≈ 0.277 µg/mL)
[7]
  MFC: 5 µM (≈ 4.62 µg/mL)
  MIC80: 2.5 µM (≈ 2.31 µg/mL)
Kodameae ohmeri 396; Kodameae ohmeri 396, multidrug-resistant
  MIC80: 1.25 µM (≈ 1.16 µg/mL)
Candida albicans SC5314 [8]
  MFC: 2.5 µM (≈ 2.31 µg/mL)
  MIC80: 0.6 µM (≈ 0.554 µg/mL)
[9]; Rhizopus oryzae FGSC 9543
  MFC: 0.3 µM (≈ 0.277 µg/mL)
  MIC80: 0.3 µM (≈ 0.277 µg/mL)
Candida albicans 1
  MIC80: 0.6 µM (≈ 0.554 µg/mL)
[10]; Paecilomyces lilacinus 165E10
  MFC: >10 µM
  MIC80: >10 µM
Candida parapsilosis 7; Candida parapsilosis 7
  MIC80: 2.5 µM (≈ 2.31 µg/mL)
Candida krusei 25; Candida krusei 25
  MIC80: 1.25 µM (≈ 1.16 µg/mL)
Candida parapsilosis 18; Candida parapsilosis 18
  MIC80: 1.25 µM (≈ 1.16 µg/mL)
Candida auris 383; Candida auris 383, multidrug-resistant
  MIC80: 2.5 µM (≈ 2.31 µg/mL)
Candida auris 390; Candida auris 390, multidrug-resistant
  MIC80: 2.5 µM (≈ 2.31 µg/mL)
Candida krusei 397; Candida krusei 397, multidrug-resistant
  MIC80: 2.5 µM (≈ 2.31 µg/mL)
Candida glabrata 11; Candida glabrata 11
  MIC80: 0.3 µM (≈ 0.277 µg/mL)
Candida auris 385; Candida auris 385, multidrug-resistant
  MIC80: 2.5 µM (≈ 2.31 µg/mL)
Candida albicans 10
  MIC80: 0.6 µM (≈ 0.554 µg/mL)
Candida glabrata 20; Candida glabrata 20
  MIC80: 0.6 µM (≈ 0.554 µg/mL)

## CC[C@H](C)C[C@H](C)C[C@H](C)C[C@@H]1NC(=O)[C@H](C(C)C)N(C)C(=O)[C@@H]([C@H](C)CC)OC(=O)[C@H](C(C)(C)O)N(C)C(=O)[C@H](CC(C)C)NC(=O)[C@H](C(C)C)N(C)C(=O)[C@H]([C@H](C)CC)NC(=O)[C@@H]2CCCN2C(=O)CN(C)C1=O [Compound 1, persephacin] (cyclo(L[NMeVal(β-OH)][X1][NMeV][X2][Sar]P[aIle][NMeV]))
[1]; Candidozyma duobushaemuli, 391
  MIC80: 2.5 µM (≈ 2.69 µg/mL)
Candida tropicalis 13
  MIC80: 0.625 µM (≈ 0.672 µg/mL)
[2]; Aspergillus niger, FGSCA732
  MFC: > 10 µM
  MIC80: 1.25 µM (≈ 1.34 µg/mL)
[3]; read-out: maximum MIC80 value
  MIC80: 5 µM (≈ 5.38 µg/mL)
[3]; read-out: median MIC80
  MIC80: 2.5 µM (≈ 2.69 µg/mL)
[3]; read-out: minimum MIC80 value
  MIC80: 0.15 µM (≈ 0.161 µg/mL)
Candida parapsilosis 9; Lodderomyces parapsilosis, 9
  MIC80: 2.5 µM (≈ 2.69 µg/mL)
Candida albicans 21
  MIC80: 1.25 µM (≈ 1.34 µg/mL)
Candida lusitaniae 398; Clavispora lusitaniae, 398
  MIC80: 2.5 µM (≈ 2.69 µg/mL)
Candida auris 388; Candidozyma auris, 388
  MIC80: 2.5 µM (≈ 2.69 µg/mL)
Candida kefyr 12; Kluyveromyces marxianus, 12
  MIC80: 1.25 µM (≈ 1.34 µg/mL)
[4]; [12]
  MIC80: 2.5 µM (≈ 2.69 µg/mL)
[4]; [13]
  MIC80: 2.5 µM (≈ 2.69 µg/mL)
[4]; [14]
  MIC80: 2.5 µM (≈ 2.69 µg/mL)
[5]; Cryptococcus neoformans, H99, Cryptococcus neoformans H99, 0% serum (v/v) in growth medium
  MIC80: 0.6 µM (≈ 0.645 µg/mL)
[5]; Cryptococcus neoformans, H99, Cryptococcus neoformans H99, 5% serum (v/v) in growth medium
  MIC80: < 0.15 µM
[5]; Cryptococcus neoformans, H99, Cryptococcus neoformans H99, 10% serum (v/v) in growth medium
  MIC80: < 0.15 µM
Candida albicans SC5314 [6]; Candida albicans, SC5314, Candida albicans SC5314, 0% serum (v/v) in growth medium
  MIC80: 0.6 µM (≈ 0.645 µg/mL)
Candida albicans SC5314 [6]; Candida albicans, SC5314, Candida albicans SC5314, 5% serum (v/v) in growth medium
  MIC80: 0.15 µM (≈ 0.161 µg/mL)
Candida albicans SC5314 [6]; Candida albicans, SC5314, Candida albicans SC5314, 10% serum (v/v) in growth medium
  MIC80: 0.3 µM (≈ 0.323 µg/mL)
Candida auris 381; [13]
  MIC80: 1.25 µM (≈ 1.34 µg/mL)
Candida auris 381; [14]
  MIC80: 1.25 µM (≈ 1.34 µg/mL)
Candida auris 381; Candidozyma auris, 0% serum (v/v) in growth medium
  MIC80: 1.25 µM (≈ 1.34 µg/mL)
Candida albicans 3
  MIC80: 2.5 µM (≈ 2.69 µg/mL)
Candida glabrata 22; Nakaseomyces glabratus, 22
  MIC80: 0.6 µM (≈ 0.645 µg/mL)
[7]
  MFC: 5 µM (≈ 5.38 µg/mL)
  MIC80: 2.5 µM (≈ 2.69 µg/mL)
Kodameae ohmeri 396; 396
  MIC80: 2.5 µM (≈ 2.69 µg/mL)
Candida albicans SC5314 [8]
  MFC: 1.25 µM (≈ 1.34 µg/mL)
  MIC80: 0.3 µM (≈ 0.323 µg/mL)
[9]; Rhizopus arrhizus, FGSC9543
  MFC: > 10 µM
  MIC80: > 10 µM
Candida albicans 1
  MIC80: 2.5 µM (≈ 2.69 µg/mL)
[10]; [15]
  MFC: > 10 µM
  MIC80: 2.5 µM (≈ 2.69 µg/mL)
Candida parapsilosis 7; Lodderomyces parapsilosis, 7
  MIC80: 2.5 µM (≈ 2.69 µg/mL)
Candida krusei 25; Pichia kudriavzevii, 25
  MIC80: 1.25 µM (≈ 1.34 µg/mL)
Candida parapsilosis 18; Lodderomyces parapsilosis, 18
  MIC80: 1.25 µM (≈ 1.34 µg/mL)
Candida auris 383; Candidozyma auris, 383
  MIC80: 2.5 µM (≈ 2.69 µg/mL)
Candida auris 390; Candidozyma auris, 390
  MIC80: 2.5 µM (≈ 2.69 µg/mL)
[11]; Aspergillus fumigatus NRRL 5109, 1,000 μg/mL
  effect of different doses on fungal growth: eliminating
[11]; Aspergillus fumigatus NRRL 5109, 0.1% 118A, 2% fluconazole, 5% natamycin, FIG. 13
  antifungal activity (fungal growth/infection), in words: inhibited the growth; also recorded: eliminated the fungus
[11]; Aspergillus fumigatus NRRL 5109, 50-250 μg/mL
  effect of different doses on fungal growth: effective at reducing
[11]; Aspergillus fumigatus NRRL5109, 118A 0.1% (1 mg/ml), natamycin 5% (50 mg/ml), fluconazole 2% (20 mg/ml)
  CFU: 0 CFU
Candida krusei 397; Pichia kudriavzevii, 397
  MIC80: 2.5 µM (≈ 2.69 µg/mL)
Candida glabrata 11; Nakaseomyces glabratus, 11
  MIC80: 0.6 µM (≈ 0.645 µg/mL)
Candida auris 385; Candidozyma auris, 385
  MIC80: 2.5 µM (≈ 2.69 µg/mL)
Candida albicans 10
  MIC80: 2.5 µM (≈ 2.69 µg/mL)
Candida glabrata 20; Nakaseomyces glabratus, 20
  MIC80: 0.3 µM (≈ 0.323 µg/mL)
Fusarium tricinctum
  MFC: 10 µM (≈ 10.8 µg/mL)
  MIC: 5 µM (≈ 5.38 µg/mL)
